Measured values published in paper PMC5430920 (Scientific Reports, 2017).

Columns and labels:
MtOPRT [1] = target: T1, MtOPRT (Mycobacterium tuberculosis, UniProt P9WHK9)
T1 construct: gene pyrE

MtOPRT [2] = target: T1, MtOPRT; remark: listed apart in the source

T1 sequence (P9WHK9 whole entry): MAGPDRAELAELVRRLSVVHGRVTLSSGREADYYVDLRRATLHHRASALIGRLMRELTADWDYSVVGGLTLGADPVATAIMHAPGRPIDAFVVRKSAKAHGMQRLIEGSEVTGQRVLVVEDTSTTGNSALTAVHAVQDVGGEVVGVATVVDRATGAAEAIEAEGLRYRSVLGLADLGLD

## O=P(O)(O)OC[C@H]1O[C@H](OP(=O)(O)OP(=O)(O)O)[C@H](O)[C@@H]1O [PRPP, α-D-5-phosphoribosyl-1-pyrophosphate]
MtOPRT [1]
  X-ray crystal structure, 2.25 Å: A PRPP molecule could be unambiguously identified in the active site in both monomers

## O=P(O)(O)O [Pi, inorganic phosphate]
MtOPRT [2]
  X-ray crystal structure, 1.90 Å: the inorganic phosphate occupies the same binding pocket of the 5-phosphate group of PRPP
